Assay results from patent US9409952B2, “Peptide-compound cyclization method” (Chugai Seiyaku Kabushiki Kaisha, priority 2011, dated 2016).
Read-outs that look alike come from different tables or passages of the source. Starred links: 1 amine or outer side, 2 acyl side, 3 side chain; linkers in the order of their positions; H or OH if unused. Positions of bridges follow the written chain, without caps; N, C: chain ends. Non-standard residues stand in square brackets, D forms with d. Residues, ends and D or L forms follow the SMILES beside them. ξ: configuration not given here. *: point of attachment. Ala(1H-tetrazol-5-yl) = N[C@@H](Cc1nnn[nH]1)C(=O)O; Arg(Me2s) = CN=C(NC)NCCC[C@H](N)C(=O)O; X2 = O=C(C[C@H](N[*:1])C(F)(F)F)[*:2]; NMeF = CN[C@@H](Cc1ccccc1)C(=O)O; NMeI = CC[C@H](C)[C@H](NC)C(=O)O; ξThr(3R) = C[C@@H](O)C(N)C(=O)O; NMeL = CN[C@@H](CC(C)C)C(=O)O; NMeV = CN[C@H](C(=O)O)C(C)C; NMeS = CN[C@@H](CO)C(=O)O; NMeA = CN[C@@H](C)C(=O)O; Piperidide = C1CCN(*)CC1; dNMeA = CN[C@H](C)C(=O)O; β3hA = C[C@H](N)CC(=O)O; Abu = CC[C@H](N)C(=O)O; Sar = CNCC(=O)O

Legend:
[1] = PAMPA (parallel artificial membrane permeability assay); format: in vitro ADME; settings: for Papp at 18 hours, 50 µM / Papp at 18 h, 50 µM: PAMPA
How it was run: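 Artificial membrane was 10% (w/v) egg lecithin plus 0.5% (w/v) cholesterol in dodecane on a PVDF filter. A 10 mM DMSO stock was added at 0.5% (v/v) to donor buffer (50 mM MOPSO, pH 6.5, 5.0% glycocholic acid). After 18 h at 37 °C, LC/MS or LC/UV gave donor and acceptor levels for Pe.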

[2] = Metabolic stability in human hepatic microsome; format: in vitro ADME; settings: microsomes
[3] = membrane permeation rate (Pe), 50 mM MOPSO buffer pH 6.5 with 5.0% glycocholic acid, 37° C., 18 hours, read-out: iPAMPA Pe
[4] = pH 7.4, human hepatic microsome, NADPH(+), read-out: CL NADPH(+)

SMILES | Papp at 18 hours, 50 µM ([1]; pH 6.5) | microsomal CLint at 1 uM ([2]; human, pH 7.4, CL NADPH(+)) | Papp at 18 hours, 50 µM [1, 3] | further results
CC[C@H](C)[C@@H]1NC(=O)[C@@H]2CCCN2C(=O)[C@H](Cc2ccccc2)NC(=O)[C@H](Cc2ccccc2)NC(=O)[C@H](CC(C)C)NC(=O)[C@H](C(C)C)N(C)C(=O)[C@H](CC(C)C)NC(=O)[C@H](C)NC(=O)[C@H](C)NC(=O)C[C@@H](C(=O)N2CCCCC2)NC(=O)CNC(=O)C([C@@H](C)O)NC1=O (stereo partly drawn) [DP-3] (AAL[NMeV]LFFPI[ξThr(3R)]GD-Piperidide; lactam N-12) | 0.56 ×10⁻⁶ cm/s | 45 µL/min/mg |  | 
CC[C@H](C)[C@@H]1NC(=O)[C@H](CC(C)C)NC(=O)[C@H](CC(C)C)NC(=O)[C@H](C)N(C)C(=O)[C@H](C(C)C)NC(=O)[C@H](C)NC(=O)C[C@@H](C(=O)N2CCCCC2)NC(=O)[C@H](CC(C)C)NC(=O)[C@H]([C@@H](C)O)NC(=O)[C@@H]2CCCN2C(=O)[C@H](CC(C)C)NC(=O)[C@H](Cc2ccccc2)NC1=O [DP-4] (AV[NMeA]LLIFLPTLD-Piperidide; lactam N-12) | 11 ×10⁻⁶ cm/s | 42 µL/min/mg |  | 
CC[C@H](C)[C@@H]1NC(=O)[C@H](C)NC(=O)C[C@@H](C(=O)N2CCCCC2)NC(=O)[C@H](CC(C)C)NC(=O)[C@H](CC(C)C)NC(=O)[C@H](C(C)C)NC(=O)[C@H](C)N(C)C(=O)[C@H](Cc2ccccc2)NC(=O)CNC(=O)[C@H]([C@@H](C)O)NC(=O)[C@H](CC(C)C)N(C)C(=O)[C@@H]2CCCN2C1=O [DP-5] (AIP[NMeL]TGF[NMeA]VLLD-Piperidide; lactam N-12) | 13 ×10⁻⁶ cm/s | 68 µL/min/mg |  | 
CC[C@H](C)[C@H]1C(=O)N(C)[C@@H](C)C(=O)N[C@@H](Cc2ccccc2)C(=O)N[C@@H]([C@@H](C)O)C(=O)N[C@@H](Cc2ccccc2)C(=O)N(C)[C@@H](CC(C)C)C(=O)N2CCC[C@H]2C(=O)N[C@H](C(=O)N2CCCCC2)CC(=O)N[C@@H](C)C(=O)N[C@@H](CC(C)C)C(=O)N(C)CC(=O)N[C@@H](CC(C)C)C(=O)N1C [DP-7] (AL[Sar]L[NMeI][NMeA]FTF[NMeL]PD-Piperidide; lactam N-12) |  |  | 10 ×10⁻⁶ cm/s | microsomal CLint at 1 uM [2, 4]: 48 µL/min/mg
CC[C@H](C)[C@@H]1NC(=O)[C@H](C)NC(=O)C[C@@H](C(=O)N2CCCCC2)NC(=O)[C@H](Cc2ccccc2)NC(=O)[C@H](C(C)C)N(C)C(=O)[C@H](CC(C)C)NC(=O)[C@H](C)N(C)C(=O)[C@H](Cc2ccccc2)N(C)C(=O)[C@H]([C@@H](C)O)NC(=O)CN(C)C(=O)[C@H](CC(C)C)N(C)C(=O)[C@@H]2CCCN2C1=O [DP-9] (AIP[NMeL][Sar]T[NMeF][NMeA]L[NMeV]FD-Piperidide; lactam N-12) |  |  | 13 ×10⁻⁶ cm/s | microsomal CLint at 1 uM [2, 4]: 18 µL/min/mg
CC[C@H](C)[C@H]1C(=O)N(C)[C@@H](C)C(=O)N(C)[C@@H](Cc2ccccc2)C(=O)N[C@@H]([C@@H](C)O)C(=O)N(C)[C@@H](Cc2ccccc2)C(=O)N(C)[C@@H](CC(C)C)C(=O)N2CCC[C@H]2C(=O)N[C@H](C(=O)N2CCCCC2)CC(=O)N[C@@H](C)C(=O)NCC(=O)N(C)[C@@H](CC(C)C)C(=O)N1C [DP-16] (AG[NMeL][NMeI][NMeA][NMeF]T[NMeF][NMeL]PD-Piperidide; lactam N-11) | 30 ×10⁻⁶ cm/s |  |  | microsomal CLint at 1 uM [2, 4]: 74 µL/min/mg
CC[C@H](C)[C@@H]1NC(=O)[C@H](Cc2ccccc2)N(C)C(=O)[C@H](Cc2ccccc2)NC(=O)[C@H](CC(C)C)N(C)C(=O)[C@H](CC(C)C)NC(=O)[C@H](C)NC(=O)C[C@@H](C(=O)N2CCCCC2)NC(=O)[C@H](CC(C)C)NC(=O)[C@H]([C@@H](C)O)NC(=O)[C@@H]2CCCN2C1=O [DP-17] (AL[NMeL]F[NMeF]IPTLD-Piperidide; lactam N-10) | 38 ×10⁻⁶ cm/s | 94 µL/min/mg |  | 
CC[C@H](C)[C@H]1C(=O)N(C)[C@@H](C)C(=O)N[C@@H](Cc2ccccc2)C(=O)N[C@@H]([C@@H](C)O)C(=O)N[C@@H](CC(C)C)C(=O)N(C)[C@@H](Cc2ccccc2)C(=O)N(C)[C@@H](C(C)C)C(=O)N[C@H](C(=O)N2CCCCC2)CC(=O)N[C@@H](C)C(=O)N[C@@H](CC(C)C)C(=O)N1C [DP-18] (AL[NMeI][NMeA]FTL[NMeF][NMeV]D-Piperidide; lactam N-10) | 30 ×10⁻⁶ cm/s | 202 µL/min/mg |  | 
CC[C@H](C)[C@H]1C(=O)N[C@@H](Cc2ccccc2)C(=O)N[C@@H](Cc2ccccc2)C(=O)N2CCC[C@H]2C(=O)N[C@@H]([C@@H](C)O)C(=O)N(C)[C@@H](CC(C)C)C(=O)N[C@H](C(=O)N2CCCCC2)CC(=O)N[C@@H](C)C(=O)N[C@@H](C)C(=O)N(C)[C@@H](CC(C)C)C(=O)N[C@@H](CC(C)C)C(=O)N1C [DP-29] (AA[NMeL]L[NMeI]FFPT[NMeL]D-Piperidide; lactam N-11) | 31 ×10⁻⁶ cm/s | 158 µL/min/mg |  | 
C/N=C(\NC)NCCC[C@@H]1NC(=O)[C@H](Cc2ccccc2)N(C)C(=O)[C@H](CC(C)C)NC(=O)[C@H](CC(C)C)N(C)C(=O)[C@H](Cc2ccccc2)NC(=O)[C@H](CC(C)C)N(C)C(=O)[C@H](CC(C)C)N(C)C(=O)[C@H](Cc2ccccc2)NC(=O)CN(C)C(=O)C[C@@H](C(=O)N(C)[C@@H](Cc2ccccc2)C(=O)N[C@@H](C)C(=O)N2CCCCC2)NC(=O)[C@H](CC(C)C)NC1=O [DP-598] ([Sar]F[NMeL][NMeL]F[NMeL]L[NMeF][Arg(Me2s)]LD[NMeF]A-Piperidide; lactam N-11) |  |  |  | iPAMPA Pe ([1]; membrane permeation rate (Pe), 50 mM MOPSO buffer pH 6.5 with 5.0% glycocholic acid, 37° C., 18 hours): 1.0E−07
CC(C)C[C@@H]1NC(=O)[C@H](CC(C)C)N(C)C(=O)[C@H](C(C)C)NC(=O)C[C@H](C)NC(=O)CN(C)C(=O)[C@H](CC(C)C)NC(=O)[C@H](CO)N(C)C(=O)[C@H](CC(C)C)N(C)C(=O)[C@H](CC(C)C)N(C)C(=O)[C@H](CC(C)C)N(C)C(=O)[C@@H](CC(C)C)NC1=O [DP-640] (cyclo(L[Sar][β3hA]V[NMeL]L[dL][NMeL][NMeL][NMeL][NMeS])) |  |  | 50 ×10⁻⁶ cm/s | 
CC(C)C[C@H]1C(=O)N[C@@H](C(C)C)C(=O)N(C)[C@@H](CC(C)C)C(=O)N[C@@H](C)C(=O)N[C@H](C)C(=O)N(C)[C@@H](CC(C)C)C(=O)N(C)[C@@H](CC(C)C)C(=O)N(C)[C@@H](CC(C)C)C(=O)N(C)[C@@H](CO)C(=O)N[C@H](C(F)(F)F)CC(=O)N(C)CC(=O)N1C [DP-654] (cyclo(A[dA][NMeL][NMeL][NMeL][NMeS][X2][Sar][NMeL]V[NMeL])) |  |  | 23 ×10⁻⁶ cm/s | 
CC[C@@H]1NC(=O)[C@H](CO)N(C)C(=O)[C@H](CC(C)C)N(C)C(=O)[C@H](CC(C)C)N(C)C(=O)[C@H](CC(C)C)N(C)C(=O)[C@@H](C)NC(=O)[C@H](CC(C)C)NC(=O)C[C@@H](C(F)(F)F)NC(=O)[C@H](C(C)C)NC(=O)[C@H](CC(C)C)N(C)C(=O)CN(C)C1=O [DP-656] (cyclo([Abu][Sar][NMeL]V[X2]L[dA][NMeL][NMeL][NMeL][NMeS])) |  |  | 30 ×10⁻⁶ cm/s | 
CC[C@H](C)[C@@H]1NC(=O)[C@H](CC(C)C)N(C)C(=O)CN(C)C(=O)[C@H]([C@@H](C)O)NC(=O)[C@H](C)N(C)C(=O)C[C@@H](C(=O)N(C)[C@@H](CC(C)C)C(=O)N[C@@H](C)C(=O)N2CCCCC2)NC(=O)[C@H](CC(C)C)N(C)C(=O)[C@H](Cc2ccccc2)N(C)C(=O)[C@H](CC(C)C)N(C)C1=O [DP-663] ([NMeA]T[Sar][NMeL]I[NMeL][NMeF][NMeL]D[NMeL]A-Piperidide; lactam N-9) |  |  | 43 ×10⁻⁶ cm/s | 
CC(C)C[C@@H]1NC(=O)[C@H](Cc2ccccc2)N(C)C(=O)[C@H](Cc2ccccc2)N(C)C(=O)[C@H](C(C)C)NC(=O)[C@H](CC(C)C)N(C)C(=O)[C@H](Cc2nn[nH]n2)NC(=O)[C@H](CC(C)C)N(C)C(=O)C[C@@H](C(=O)N2CCCCC2)NC(=O)[C@H](CC(C)C)N(C)C1=O [DP-907] ([NMeL][Ala(1H-tetrazol-5-yl)][NMeL]V[NMeF][NMeF]L[NMeL]D-Piperidide; lactam N-9) |  |  | 21 ×10⁻⁶ cm/s | 
CC[C@H](C)[C@H](NC(=O)[C@H](CC(C)C)NC(=O)[C@H](Cc1ccccc1)NC(=O)[C@@H]1CCCN1C(=O)[C@H](CC(C)C)NC(=O)[C@@H]1CC(=O)N[C@@H](Cc2ccccc2)C(=O)N(C)[C@@H](Cc2ccccc2)C(=O)N(C)[C@@H](CC(C)C)C(=O)N[C@@H]([C@@H](C)O)C(=O)N(C)[C@@H](C)C(=O)N(C)[C@@H](CC(C)C)C(=O)N1)C(=O)N1CCCCC1 [DP-910] (F[NMeF][NMeL]T[NMeA][NMeL]DLPFLI-Piperidide; lactam N-7) |  |  | 0.16 ×10⁻⁶ cm/s | 
CC[C@H](C)[C@@H]1NC(=O)[C@H](CC(C)C)N(C)C(=O)[C@H](C)N(C)C(=O)[C@H](Cc2ccccc2)N(C)C(=O)[C@@H](C)N(C)C(=O)C[C@@H](C(=O)N2CCCCC2)NC(=O)[C@H](CC(C)C)N(C)C(=O)[C@H]([C@@H](C)O)NC(=O)[C@H](CO)NC(=O)[C@H](CC(C)C)NC(=O)[C@H](C)N(C)C(=O)[C@H](CC(C)C)N(C)C(=O)[C@H](Cc2ccccc2)NC(=O)[C@H](CC(C)C)N(C)C1=O [DP-959] ([dNMeA][NMeF][NMeA][NMeL]I[NMeL]F[NMeL][NMeA]LST[NMeL]D-Piperidide; lactam N-14) |  |  | 2.9 ×10⁻⁶ cm/s | 
NS(=O)(=O)c1cc2c(cc1Cl)NCNS2(=O)=O [hydrochlorothiazide, reference compound] |  |  |  | Papp at 18 h, 50 µM [1]: 0.6 ×10⁻⁶ cm/s
COCCc1ccc(OCC(O)CNC(C)C)cc1 (stereo not shown) [metoprolol, reference compound] |  |  |  | Papp at 18 h, 50 µM [1]: 29 ×10⁻⁶ cm/s
